# What was measured:
# Test in all cases: Test B pre-/postemergence plant response
# Type in all cases: in vivo
# [1] = system: eastern black (E.B.) nightshade (Solanum ptycanthum); conditions: Preemergence
# Source text: (§1) Seeds of plant species selected from blackgrass (Alopecurus myosuroides), downy bromegrass (Bromus tectorum), green foxtail (Setaria viridis), Italian ryegrass (Lolium multiflorum), wheat (Triticum aestivum), wild oat (Avena fatua), catchweed bedstraw (Galium aparine), bermudagrass (Cynodon dactylon), surinam grass (Brachiaria decumbens), cocklebur (Xanthium strumarium), corn (Zea mays), large crabgrass (Digitaria sanguinalis), woolly cupgrass (Eriochloa villosa), giant foxtail (Setaria faberii), goosegrass (Eleusine indica), johnsongrass (Sorghum halepense), kochia (Kochia scoparia), lambsquarters (Chenopodium album), morningglory (Ipomoea coccinea), eastern black (E.B.) nightshade (Solanum ptycanthum), yellow nutsedge (Cyperus esculentus), pigweed (Amaranthus retroflexus), common ragweed (Ambrosia elation), Russian thistle (Salsola iberica), soybean (Glycine max), common (oilseed) sunflower (Helianthus annuus), and velvetleaf (Abutilon theophrasti) were planted and treated preemergence with test chemicals formulated in a non-phytotoxic solvent mixture which included a surfactant.
# (§2) At the same time, plants selected from these crop and weed species and also winter barley (Hordeum vulgare), canarygrass (Phalaris minor), chickweed (Stellaria media) and windgrass (Apera spica-venti) were treated with postemergence applications of some of the test chemicals formulated in the same manner. Plants ranged in height from 2 to 18 cm (1- to 4-leaf stage) for postemergence treatments.
# (§3) Plant species in the flooded paddy test consisted of rice (Oryza sativa), umbrella sedge (Cyperus difformis), ducksalad (Heteranthera limosa) and barnyardgrass (Echinochloa crus-galli) grown to the 2-leaf stage for testing. At time of treatment, test pots were flooded to 3 cm above the soil surface, treated by application of test compounds directly to the paddy water, and then maintained at that water depth for the duration of the test. Treated plants and controls were maintained in a greenhouse for 13 to 15 days, after which time all species were compared to controls and visually evaluated. Plant response ratings, summarized in Table B, are based on a scale of 0 to 100 where 0 is no effect and 100 is complete control. A dash (-) response means no test result.
# [2] = system: giant foxtail (Setaria faberii)
# Source text: as §1, §2, §3
# [3] = system: blackgrass (Alopecurus myosuroides)
# Source text: as §1, §2, §3
# wild oat (Avena fatua) = system: wild oat (Avena fatua)
# Source text: as §1, §2, §3
# [4] = system: Italian ryegrass (Lolium multiflorum)
# Source text: as §1, §2, §3
# [5] = system: johnsongrass (Sorghum halepense)
# Source text: as §1, §2, §3
# [6] = system: morningglory (Ipomoea coccinea)
# Source text: as §1, §2, §3
# [7] = system: surinam grass (Brachiaria decumbens)
# Source text: as §1, §2, §3
# [8] = system: bermudagrass (Cynodon dactylon)
# Source text: as §1, §2, §3
# [9] = system: lambsquarters (Chenopodium album)
# Source text: as §1, §2, §3
# corn (Zea mays) = system: corn (Zea mays)
# Source text: as §1, §2, §3
# kochia (Kochia scoparia) = system: kochia (Kochia scoparia)
# Source text: as §1, §2, §3
# [10] = system: yellow nutsedge (Cyperus esculentus)
# Source text: as §1, §2, §3
# [11] = system: common ragweed (Ambrosia elation)
# Source text: as §1, §2, §3
# [12] = Postemergence, 31 g ai/ha, scale 0 to 100, 0 no effect, 100 complete control
# [13] = Postemergence, 62 g ai/ha, scale 0 to 100
# [14] = Postemergence, 125 g ai/ha, scale 0 to 100
# [15] = Postemergence, 250 g ai/ha, scale 0 to 100
# [16] = Preemergence, 31 g ai/ha, 0 to 100 scale, 0 no effect, 100 complete control
# [17] = Preemergence, 62 g ai/ha, scale 0 to 100
# [18] = Preemergence, 125 g ai/ha, scale 0 to 100
# [19] = Preemergence, 250 g ai/ha, scale 0 to 100
# [20] = 250 g ai/ha, preemergence, 0-100 scale
smiles,measurement,setting,value
Cc1nn(C)c(=O)c(-n2nc(-c3ccc(Cl)cc3)cc2C)c1O [Compound 15],"Plant response rating, Nightshade, E. B.","[1]; 31 g ai/ha, 0 to 100 scale, 0 no effect, 100 complete control",0
same,"Plant response rating, Nightshade, E. B.","[1]; 62 g ai/ha, scale 0 to 100",0
same,"Plant response rating, Nightshade, E. B.","[1]; 125 g ai/ha, scale 0 to 100",0
same,"Plant response rating, Nightshade, E. B.","[1]; 250 g ai/ha, scale 0 to 100",0
same,"Plant response rating, Foxtail, Giant",[2]; [12],95
same,"Plant response rating, Foxtail, Giant",[2]; [13],100
same,"Plant response rating, Foxtail, Giant",[2]; [14],100
same,"Plant response rating, Foxtail, Giant",[2]; [15],100
same,"Plant response rating, Foxtail, Giant",[2]; [16],90
same,"Plant response rating, Foxtail, Giant",[2]; [17],100
same,"Plant response rating, Foxtail, Giant",[2]; [18],100
same,"Plant response rating, Foxtail, Giant",[2]; [19],100
same,Blackgrass plant response rating,[3]; [20],100
same,"Plant response rating, Blackgrass",[3]; [12],90
same,"Plant response rating, Blackgrass",[3]; [13],95
same,"Plant response rating, Blackgrass",[3]; [14],95
same,"Plant response rating, Blackgrass",[3]; [15],98
same,"Plant response rating, Blackgrass",[3]; [16],100
same,"Plant response rating, Blackgrass",[3]; [17],100
same,"Plant response rating, Blackgrass",[3]; [18],100
same,"Plant response rating, Oat, Wild",wild oat (Avena fatua); [12],95
same,"Plant response rating, Oat, Wild",wild oat (Avena fatua); [13],98
same,"Plant response rating, Oat, Wild",wild oat (Avena fatua); [14],98
same,"Plant response rating, Oat, Wild",wild oat (Avena fatua); [15],100
same,"Plant response rating, Oat, Wild",wild oat (Avena fatua); [16],10
same,"Plant response rating, Oat, Wild",wild oat (Avena fatua); [17],70
same,"Plant response rating, Oat, Wild",wild oat (Avena fatua); [18],80
same,"Plant response rating, Oat, Wild",wild oat (Avena fatua); [19],85
same,"Plant response rating, Ryegrass, Italian",[4]; [12],98
same,"Plant response rating, Ryegrass, Italian",[4]; [13],100
same,"Plant response rating, Ryegrass, Italian",[4]; [14],100
same,"Plant response rating, Ryegrass, Italian",[4]; [15],100
same,"Plant response rating, Ryegrass, Italian",[4]; [16],70
same,"Plant response rating, Ryegrass, Italian",[4]; [17],100
same,"Plant response rating, Ryegrass, Italian",[4]; [18],100
same,"Plant response rating, Ryegrass, Italian",[4]; [19],100
same,"Plant response rating, Johnsongrass",[5]; [12],70
same,"Plant response rating, Johnsongrass",[5]; [13],80
same,"Plant response rating, Johnsongrass",[5]; [14],100
same,"Plant response rating, Johnsongrass",[5]; [15],100
same,"Plant response rating, Johnsongrass",[5]; [16],70
same,"Plant response rating, Johnsongrass",[5]; [17],95
same,"Plant response rating, Johnsongrass",[5]; [18],98
same,"Plant response rating, Johnsongrass",[5]; [19],100
same,"Plant response rating, Morningglory",[6]; [12],0
same,"Plant response rating, Morningglory",[6]; [13],0
same,"Plant response rating, Morningglory",[6]; [14],0
same,"Plant response rating, Morningglory",[6]; [15],0
same,"Plant response rating, Morningglory",[6]; [16],0
same,"Plant response rating, Morningglory",[6]; [18],0
same,"Plant response rating, Surinam Grass",[7]; [12],100
same,"Plant response rating, Surinam Grass",[7]; [13],100
same,"Plant response rating, Surinam Grass",[7]; [14],100
same,"Plant response rating, Surinam Grass",[7]; [15],100
same,"Plant response rating, Surinam Grass",[7]; [16],100
same,"Plant response rating, Surinam Grass",[7]; [17],100
same,"Plant response rating, Surinam Grass",[7]; [18],100
same,"Plant response rating, Surinam Grass",[7]; [19],100
same,Bermudagrass plant response rating,[8]; [20],100
same,"Plant response rating, Bermudagrass",[8]; [12],70
same,"Plant response rating, Bermudagrass",[8]; [13],100
same,"Plant response rating, Bermudagrass",[8]; [14],100
same,"Plant response rating, Bermudagrass",[8]; [15],100
same,"Plant response rating, Bermudagrass",[8]; [16],98
same,"Plant response rating, Bermudagrass",[8]; [17],98
same,"Plant response rating, Bermudagrass",[8]; [18],100
same,"Plant response rating, Lambsquarters",[9]; [12],0
same,"Plant response rating, Lambsquarters",[9]; [13],0
same,"Plant response rating, Lambsquarters",[9]; [14],0
same,"Plant response rating, Lambsquarters",[9]; [15],0
same,"Plant response rating, Lambsquarters",[9]; [16],0
same,"Plant response rating, Lambsquarters",[9]; [17],0
same,"Plant response rating, Lambsquarters",[9]; [18],0
same,"Plant response rating, Lambsquarters",[9]; [19],0
same,"Plant response rating, Corn",corn (Zea mays); [12],90
same,"Plant response rating, Corn",corn (Zea mays); [13],95
same,"Plant response rating, Corn",corn (Zea mays); [14],95
same,"Plant response rating, Corn",corn (Zea mays); [16],50
same,"Plant response rating, Corn",corn (Zea mays); [17],98
same,"Plant response rating, Corn",corn (Zea mays); [18],100
same,"Plant response rating, Corn",corn (Zea mays); [19],100
same,"Plant response rating, Kochia",kochia (Kochia scoparia); [12],0
same,"Plant response rating, Kochia",kochia (Kochia scoparia); [13],0
same,"Plant response rating, Kochia",kochia (Kochia scoparia); [14],0
same,"Plant response rating, Kochia",kochia (Kochia scoparia); [15],0
same,"Plant response rating, Kochia",kochia (Kochia scoparia); [17],0
same,"Plant response rating, Nutsedge, Yellow",[10]; [13],0
same,"Plant response rating, Nutsedge, Yellow",[10]; [14],0
same,"Plant response rating, Nutsedge, Yellow",[10]; [15],0
same,"Plant response rating, Nutsedge, Yellow",[10]; [16],0
same,"Plant response rating, Nutsedge, Yellow",[10]; [17],0
same,"Plant response rating, Nutsedge, Yellow",[10]; [19],0
same,"Plant response rating, Ragweed",[11]; [12],0
same,"Plant response rating, Ragweed",[11]; [13],0
same,"Plant response rating, Ragweed",[11]; [14],0
same,"Plant response rating, Ragweed",[11]; [15],40
same,"Plant response rating, Ragweed",[11]; [16],0
same,"Plant response rating, Ragweed",[11]; [17],0
same,"Plant response rating, Ragweed",[11]; [18],0
same,"Plant response rating, Ragweed",[11]; [19],0
